Assay results from the CheMixHub viscosity set.

Assay: xn = mol fraction of the nth substance listed

CCCCCCCCCCCCCC[P+](CCCCCC)(CCCCCC)CCCCCC.c1c[n-]nn1 + CCCCn1cc[n+](C)c1.O=S(=O)([N-]S(=O)(=O)C(F)(F)F)C(F)(F)F
viscosity [mPa·s], 100 kPa
Conditions	293.15 K	298.15 K	303.15 K	308.15 K	313.15 K	318.15 K	323.15 K
x1 = 0.1	98	77	61	49	–	–	–
x1 = 0.2	164	123	96	76	62	50	–
x1 = 0.278	242	178	135	107	84	68	56
x1 = 0.612	602	428	311	231	174	135	107
x1 = 0.699	663	468	339	252	190	147	115
x1 = 0.8	723	507	368	273	205	158	125
x1 = 0.9	685	486	353	263	199	154	123

CCC(=O)O + CCCO
308.15 K, 101 kPa
Conditions	viscosity [mPa·s]
x1 = 0.0416	1.42
x1 = 0.084	1.443
x1 = 0.1244	1.439
x1 = 0.1683	1.368
x1 = 0.2579	1.351
x1 = 0.3504	1.328
x1 = 0.4481	1.289
x1 = 0.5489	1.242
x1 = 0.6538	1.178
x1 = 0.7644	1.096
x1 = 0.8223	1.055
x1 = 0.8798	1.006
x1 = 0.9384	0.9669

O=C(O)c1ccccc1O + CCCO
viscosity [mPa·s]
Conditions	308.15 K	313.15 K	318.15 K	323.15 K
101 kPa, x1 = 0.133	2.13	–	–	1.51
101 kPa, x1 = 0.16	2.236	–	–	1.602
101 kPa, x1 = 0.179	2.427	–	–	1.69
101 kPa, x1 = 0.191	2.4	–	–	1.722
101.33 kPa, x1 = 0.16	2.236	2.012	1.791	1.602
101.33 kPa, x1 = 0.19	–	2.17	1.929	1.722

CCC(=O)O + CCO
308.15 K, 101 kPa
Conditions	viscosity [mPa·s]
x1 = 0.0674	1.035
x1 = 0.1373	1.062
x1 = 0.2156	1.095
x1 = 0.2983	1.125
x1 = 0.3898	1.151
x1 = 0.4885	1.167
x1 = 0.5987	1.16
x1 = 0.7173	1.119
x1 = 0.7834	1.081
x1 = 0.8532	1.043
x1 = 0.9225	0.9581

Nc1cccc(Cl)c1 + CCOCCO
303.15 K, 101 kPa
Conditions	viscosity [mPa·s]
x1 = 0.0966	2.028
x1 = 0.1696	2.159
x1 = 0.2725	2.333
x1 = 0.3613	2.473
x1 = 0.4791	2.643
x1 = 0.5648	2.755
x1 = 0.68	2.897
x1 = 0.7804	3.008
x1 = 0.8884	3.121

CC(=O)CCC(=O)O + CC[N+](CC)(CC)CC.[Br-]
101 kPa, x1 = 0.75
Conditions	viscosity [mPa·s]
293.15 K	149
303.15 K	76.98
313.15 K	42.42
323.15 K	28.81

CCC(=O)O + CCc1ccccc1
308.15 K, 101.33 kPa
Conditions	viscosity [mPa·s]
x1 = 0.1393	0.5916
x1 = 0.2634	0.6031
x1 = 0.3813	0.6196
x1 = 0.4881	0.6386
x1 = 0.5891	0.6621
x1 = 0.6835	0.6881
x1 = 0.7694	0.721
x1 = 0.8518	0.7666
x1 = 0.9275	0.8175

CCC(=O)O + CO
308.15 K, 101 kPa
Conditions	viscosity [mPa·s]
x1 = 0.0467	0.5336
x1 = 0.0975	0.5843
x1 = 0.157	0.6175
x1 = 0.2234	0.6789
x1 = 0.3021	0.7413
x1 = 0.3923	0.8094
x1 = 0.5024	0.9055
x1 = 0.6344	0.9763
x1 = 0.7111	1.021
x1 = 0.7964	0.9955
x1 = 0.8919	0.9369

O=C(O)c1ccccc1O + CO
viscosity [mPa·s]
Conditions	308.15 K	313.15 K	318.15 K	323.15 K
101 kPa, x1 = 0.13	1.049	–	–	0.8273
101 kPa, x1 = 0.14	1.086	–	–	0.8572
101 kPa, x1 = 0.15	1.118	–	–	0.8818
101 kPa, x1 = 0.17	1.262	–	–	0.9692
101.33 kPa, x1 = 0.13	1.049	0.9732	0.8932	0.8273
101.33 kPa, x1 = 0.15	1.118	1.036	0.9552	0.8818

CC12CCC(CC1)C(C)(C)O2 + COC(C)(C)C
298.15 K, 101.33 kPa
Conditions	viscosity [mPa·s]
x2 = 0.039	2.365
x2 = 0.1663	1.833
x2 = 0.2659	1.491
x2 = 0.379	1.188
x2 = 0.4562	1.02
x2 = 0.5768	0.7958
x2 = 0.6621	0.6632
x2 = 0.7385	0.5702
x2 = 0.8408	0.4604
x2 = 0.902	0.4049
x2 = 0.9701	0.3547

Nc1cccc(Cl)c1 + COCCO
303.15 K, 101 kPa
Conditions	viscosity [mPa·s]
x1 = 0.0687	2.116
x1 = 0.1403	2.27
x1 = 0.238	2.434
x1 = 0.3592	2.586
x1 = 0.4287	2.72
x1 = 0.5233	2.844
x1 = 0.6416	2.949
x1 = 0.7401	3.05
x1 = 0.8794	3.143

CCCCCCCCCCCCCC[P+](CCCCCC)(CCCCCC)CCCCCC.c1c[n-]nn1 + COCCOCCOCCOCCOC
viscosity [mPa·s], 100 kPa
Conditions	293.15 K	298.15 K	303.15 K	308.15 K	313.15 K	318.15 K	323.15 K
x1 = 0.499	80	65	53	–	–	–	–
x1 = 0.602	118	93	74	62	51	–	–
x1 = 0.69	172	134	106	85	69	57	–
x1 = 0.793	250	190	147	116	93	76	63
x1 = 0.878	358	266	201	156	123	99	81
x1 = 0.917	400	294	221	170	133	106	86

CC(=O)CCC(=O)O + C[N+](C)(C)CCO.[Cl-]
viscosity [mPa·s]
Conditions	293.15 K	298.15 K	303.15 K	308.15 K	313.15 K	318.15 K	323.15 K
100 kPa, x2 = 0.33	320.6	226.8	164.5	122.5	93.62	72.54	57.48
101 kPa, x1 = 0.75	134.2	–	79.14	–	47.76	–	31.29
101 kPa, x2 = 0.25	–	132.9	–	–	–	46.9	–
101 kPa, x2 = 0.333	–	207.8	–	–	–	68	–

CCC(=O)O + C[N+](C)(C)CCO.[Cl-]
101 kPa, x2 = 0.333
Conditions	viscosity [mPa·s]
293.15 K	70.98
298.15 K	55.91
303.15 K	44.79
308.15 K	36.45
313.15 K	30.06
318.15 K	25.09
323.15 K	21.19

CC12CCC(CC1)C(C)(C)O2 + Cc1ccc(O)cc1
viscosity [mPa·s], 101 kPa
Conditions	x1 = 0.065	x1 = 0.1353	x1 = 0.2115	x1 = 0.2943	x1 = 0.3849	x1 = 0.4841	x1 = 0.5935	x1 = 0.7145	x1 = 0.8492
303.15 K	10.05	10.4	10.3	9.855	8.969	7.588	6	4.552	3.36
308.15 K	8.061	8.368	8.359	8.056	7.332	6.325	5.03	3.799	2.854
313.15 K	6.612	6.841	6.808	6.617	6.12	5.364	4.313	3.244	2.467

CC12CCC(CC1)C(C)(C)O2 + Cc1cccc(O)c1
viscosity [mPa·s], 101 kPa
Conditions	x1 = 0.065	x1 = 0.1352	x1 = 0.2114	x1 = 0.2943	x1 = 0.3848	x1 = 0.4841	x1 = 0.5934	x1 = 0.7145	x1 = 0.8492
303.15 K	10.48	10.69	10.47	9.802	8.746	7.564	6.28	4.91	3.559
308.15 K	8.331	8.539	8.426	7.994	7.155	6.222	5.16	4.043	3.002
313.15 K	6.756	6.947	6.878	6.474	5.892	5.161	4.295	3.348	2.505

CCC(=O)O + Cc1ccccc1
viscosity [mPa·s], 101.33 kPa
Conditions	293.15 K	303.15 K	308.15 K	313.15 K	323.15 K
x1 = 0.1231	–	–	0.5358	–	–
x1 = 0.2366	–	–	0.5532	–	–
x1 = 0.3487	–	–	0.5721	–	–
x1 = 0.4523	–	–	0.597	–	–
x1 = 0.5546	–	–	0.6271	–	–
x1 = 0.6523	–	–	0.6628	–	–
x1 = 0.7435	–	–	0.702	–	–
x1 = 0.832	–	–	0.7411	–	–
x1 = 0.9187	–	–	0.8128	–	–
x2 = 0.0286	1.06	0.9144	–	0.8218	0.7431
x2 = 0.072	1.009	0.8713	–	0.7818	0.6965
x2 = 0.1175	0.967	0.8298	–	0.751	0.672
x2 = 0.1497	0.9304	0.7997	–	0.7176	0.6478
x2 = 0.2309	0.8623	0.7424	–	0.6663	0.5978
x2 = 0.3182	0.806	0.6911	–	0.6194	0.5682
x2 = 0.4118	0.7554	0.6539	–	0.5909	0.5342
x2 = 0.5137	0.7079	0.6205	–	0.5536	0.5047
x2 = 0.555	0.6938	0.6095	–	0.5469	0.4952
x2 = 0.6209	0.6768	0.5898	–	0.5292	0.4824
x2 = 0.6913	0.6606	0.5743	–	0.5131	0.4666
x2 = 0.7372	0.6419	0.5603	–	0.5035	0.4574
x2 = 0.787	0.6276	0.5507	–	0.494	0.4506
x2 = 0.8644	0.6088	0.5364	–	0.4799	0.4372
x2 = 0.9714	0.5928	0.5259	–	0.4684	0.4295

CCCCCCCN + Cc1ccccc1
303.15 K, 101 kPa
Conditions	viscosity [mPa·s]
x2 = 0.1243	0.8161
x2 = 0.2792	0.7217
x2 = 0.4418	0.6387
x2 = 0.5561	0.5933
x2 = 0.5995	0.58
x2 = 0.7025	0.5493
x2 = 0.7845	0.5305
x2 = 0.875	0.5139
x2 = 0.939	0.5173

Nc1cccc(Cl)c1 + Cc1ccccc1Cl
viscosity [mPa·s], 100 kPa
Conditions	x1 = 0.0744	x1 = 0.1659	x1 = 0.2575	x1 = 0.3522	x1 = 0.4708	x1 = 0.5714	x1 = 0.6762	x1 = 0.7838	x1 = 0.8902
303.15 K	1.146	1.462	1.777	2.1	2.502	2.84	3.191	3.548	3.898
308.15 K	1.044	1.329	1.614	1.906	2.267	2.573	2.888	3.209	3.523
313.15 K	0.9401	1.196	1.45	1.71	2.033	2.304	2.585	2.871	3.149
318.15 K	0.8312	1.059	1.283	1.512	1.797	2.036	2.283	2.534	2.778

CCC(=O)O + Cc1ccccc1N
viscosity [mPa·s], 100 kPa
Conditions	x2 = 0.0977	x2 = 0.1983	x2 = 0.2728	x2 = 0.3622	x2 = 0.4952	x2 = 0.5997	x2 = 0.6763	x2 = 0.7449	x2 = 0.8891
303.15 K	1.2	1.45	1.64	1.85	2.16	2.4	2.57	2.72	3.03
308.15 K	1.1	1.31	1.47	1.65	1.91	2.11	2.25	2.38	2.64
313.15 K	1	1.19	1.32	1.48	1.71	1.88	2	2.11	2.33
318.15 K	0.91	1.07	1.18	1.32	1.51	1.66	1.76	1.85	2.03

Nc1cccc(Cl)c1 + Clc1ccccc1
Conditions	viscosity [mPa·s]
308.15 K, 100 kPa, x1 = 0.3821	2.145

O=[N+]([O-])[O-].[Li+] + N
293.15 K, 101 kPa
Conditions	viscosity [mPa·s]
x1 = 0.026	0.168
x1 = 0.059	0.228
x1 = 0.096	0.32
x1 = 0.174	0.602
